Where two headings read alike, the source gives them in different places.
How the values were obtained:
[1] = biological target: T1, CSNK1D (Homo sapiens, UniProt P48730); experiment: Thermal shift assay; assay type: binding; details: read-out: ΔTm CSNK1D
T1 construct: purchased in-house thermal shift (DSF) kinase panel (SGC Frankfurt); Promega NanoBRET for AURKA/B/C
T1 sequence (P48730 1-294): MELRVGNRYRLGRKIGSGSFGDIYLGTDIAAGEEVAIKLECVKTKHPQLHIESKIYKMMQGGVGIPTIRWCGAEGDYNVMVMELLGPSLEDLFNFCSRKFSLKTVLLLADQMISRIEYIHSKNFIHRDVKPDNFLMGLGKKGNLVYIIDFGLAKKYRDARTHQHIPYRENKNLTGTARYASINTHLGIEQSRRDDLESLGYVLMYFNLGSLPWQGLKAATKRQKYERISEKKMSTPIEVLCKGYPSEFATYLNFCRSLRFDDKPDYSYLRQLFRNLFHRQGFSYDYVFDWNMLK

[2] = biological target: T2, TTK (Homo sapiens, UniProt P33981); experiment: Thermal shift assay; assay type: binding; details: read-out: ΔTm TTK
T2 construct: purchased in-house thermal shift (DSF) kinase panel (SGC Frankfurt); Promega NanoBRET for AURKA/B/C
T2 sequence (P33981 519-808): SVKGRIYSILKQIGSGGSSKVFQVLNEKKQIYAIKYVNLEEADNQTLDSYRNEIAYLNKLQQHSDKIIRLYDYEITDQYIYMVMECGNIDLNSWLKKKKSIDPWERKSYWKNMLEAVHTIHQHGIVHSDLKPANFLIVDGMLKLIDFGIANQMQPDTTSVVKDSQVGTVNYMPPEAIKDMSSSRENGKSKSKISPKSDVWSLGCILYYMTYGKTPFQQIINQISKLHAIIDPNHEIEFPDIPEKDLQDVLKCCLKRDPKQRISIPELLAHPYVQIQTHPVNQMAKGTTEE

[3] = biological target: T3, STK17A (Homo sapiens, UniProt Q9UEE5); experiment: Thermal shift assay; assay type: binding; details: read-out: ΔTm STK17A
T3 construct: purchased in-house thermal shift (DSF) kinase panel (SGC Frankfurt); Promega NanoBRET for AURKA/B/C
T3 sequence (Q9UEE5 61-321): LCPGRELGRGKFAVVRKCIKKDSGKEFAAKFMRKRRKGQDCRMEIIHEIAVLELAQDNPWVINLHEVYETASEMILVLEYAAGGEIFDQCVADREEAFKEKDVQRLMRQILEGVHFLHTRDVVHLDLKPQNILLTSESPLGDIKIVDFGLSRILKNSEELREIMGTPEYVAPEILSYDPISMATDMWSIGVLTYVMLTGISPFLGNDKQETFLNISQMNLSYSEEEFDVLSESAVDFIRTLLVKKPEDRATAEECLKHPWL

[4] = biological target: T4, CAMKK2 (Homo sapiens, UniProt Q96RR4); experiment: Thermal shift assay; assay type: binding; details: read-out: ΔTm CAMKK2
T4 construct: purchased in-house thermal shift (DSF) kinase panel (SGC Frankfurt); Promega NanoBRET for AURKA/B/C
T4 sequence (Q96RR4 161-449): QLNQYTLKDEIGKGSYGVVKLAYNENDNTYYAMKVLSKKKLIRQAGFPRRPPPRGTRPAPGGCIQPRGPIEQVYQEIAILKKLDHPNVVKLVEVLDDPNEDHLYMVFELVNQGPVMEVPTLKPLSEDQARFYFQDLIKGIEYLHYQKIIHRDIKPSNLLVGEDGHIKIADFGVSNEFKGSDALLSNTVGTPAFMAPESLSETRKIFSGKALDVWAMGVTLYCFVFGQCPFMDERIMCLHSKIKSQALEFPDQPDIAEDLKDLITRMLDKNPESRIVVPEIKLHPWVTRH

[5] = biological target: T5, STK39 (Homo sapiens, UniProt Q9UEW8); experiment: Thermal shift assay; assay type: binding; details: read-out: ΔTm STK39
T5 construct: purchased in-house thermal shift (DSF) kinase panel (SGC Frankfurt); Promega NanoBRET for AURKA/B/C

[6] = biological target: T6, PAK1 (Homo sapiens, UniProt Q13153); experiment: Thermal shift assay; assay type: binding; details: read-out: ΔTm PAK1
T6 construct: purchased in-house thermal shift (DSF) kinase panel (SGC Frankfurt); Promega NanoBRET for AURKA/B/C
T6 sequence (Q13153 249-545): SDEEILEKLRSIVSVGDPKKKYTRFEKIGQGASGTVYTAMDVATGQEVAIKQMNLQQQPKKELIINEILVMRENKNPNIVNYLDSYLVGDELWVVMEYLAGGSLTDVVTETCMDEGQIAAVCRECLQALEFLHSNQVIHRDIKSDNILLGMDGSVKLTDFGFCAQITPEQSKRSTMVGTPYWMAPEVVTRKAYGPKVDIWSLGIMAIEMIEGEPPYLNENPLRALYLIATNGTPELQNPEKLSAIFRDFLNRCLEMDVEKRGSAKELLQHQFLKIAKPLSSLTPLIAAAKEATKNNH

[7] = biological target: T7, STK3 (Homo sapiens, UniProt Q13188); experiment: Thermal shift assay; assay type: binding; details: read-out: ΔTm STK3
T7 construct: purchased in-house thermal shift (DSF) kinase panel (SGC Frankfurt); Promega NanoBRET for AURKA/B/C
T7 sequence (Q13188 16-313): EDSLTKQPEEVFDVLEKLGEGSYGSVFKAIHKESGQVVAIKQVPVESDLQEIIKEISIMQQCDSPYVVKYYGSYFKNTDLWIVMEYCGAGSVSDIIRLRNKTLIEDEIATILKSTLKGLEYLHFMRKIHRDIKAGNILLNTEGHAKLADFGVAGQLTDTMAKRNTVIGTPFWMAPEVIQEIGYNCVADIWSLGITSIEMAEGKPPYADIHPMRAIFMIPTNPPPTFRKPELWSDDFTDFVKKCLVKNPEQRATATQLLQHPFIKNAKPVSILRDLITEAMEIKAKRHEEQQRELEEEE

[8] = biological target: T8, STK10 (Homo sapiens, UniProt O94804); experiment: Thermal shift assay; assay type: binding; details: read-out: ΔTm STK10
T8 construct: purchased in-house thermal shift (DSF) kinase panel (SGC Frankfurt); Promega NanoBRET for AURKA/B/C
T8 sequence (O94804 18-317): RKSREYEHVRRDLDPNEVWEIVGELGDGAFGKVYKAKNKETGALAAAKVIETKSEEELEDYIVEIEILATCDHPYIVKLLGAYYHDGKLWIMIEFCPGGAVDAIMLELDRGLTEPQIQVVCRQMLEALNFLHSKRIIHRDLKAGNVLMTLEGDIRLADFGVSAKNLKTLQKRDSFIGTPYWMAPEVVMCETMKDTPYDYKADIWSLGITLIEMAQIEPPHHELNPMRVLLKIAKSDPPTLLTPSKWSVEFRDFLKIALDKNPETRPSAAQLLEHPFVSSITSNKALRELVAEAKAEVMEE

[9] = biological target: T9, PIM1 (Homo sapiens, UniProt P11309); experiment: Thermal shift assay; assay type: binding; details: read-out: ΔTm PIM1
T9 construct: purchased in-house thermal shift (DSF) kinase panel (SGC Frankfurt); Promega NanoBRET for AURKA/B/C
T9 sequence (P11309 whole entry): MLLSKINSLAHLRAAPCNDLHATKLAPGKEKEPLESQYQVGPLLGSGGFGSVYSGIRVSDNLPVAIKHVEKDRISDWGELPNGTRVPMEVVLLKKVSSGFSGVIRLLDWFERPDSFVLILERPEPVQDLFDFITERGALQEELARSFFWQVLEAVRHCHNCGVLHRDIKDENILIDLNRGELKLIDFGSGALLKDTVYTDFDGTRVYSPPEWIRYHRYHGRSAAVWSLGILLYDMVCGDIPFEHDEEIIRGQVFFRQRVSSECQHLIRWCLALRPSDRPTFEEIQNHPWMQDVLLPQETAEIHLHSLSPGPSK

[10] = biological target: T10, ABL1 (Homo sapiens, UniProt P00519); experiment: Thermal shift assay; assay type: binding; details: read-out: ΔTm ABL1
T10 construct: purchased in-house thermal shift (DSF) kinase panel (SGC Frankfurt); Promega NanoBRET for AURKA/B/C
T10 sequence (P00519 229-512): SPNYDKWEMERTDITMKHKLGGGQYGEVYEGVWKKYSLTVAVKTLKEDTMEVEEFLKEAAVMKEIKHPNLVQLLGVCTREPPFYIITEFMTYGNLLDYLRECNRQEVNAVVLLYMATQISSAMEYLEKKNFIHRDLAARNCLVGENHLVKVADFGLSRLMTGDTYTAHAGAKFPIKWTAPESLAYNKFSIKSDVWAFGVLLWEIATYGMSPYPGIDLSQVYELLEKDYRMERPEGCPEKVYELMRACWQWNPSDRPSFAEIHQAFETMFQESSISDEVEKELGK

[11] = biological target: T11, BMX (Homo sapiens, UniProt P51813); experiment: Thermal shift assay; assay type: binding; details: read-out: ΔTm BMX
T11 construct: purchased in-house thermal shift (DSF) kinase panel (SGC Frankfurt); Promega NanoBRET for AURKA/B/C
T11 sequence (P51813 411-675): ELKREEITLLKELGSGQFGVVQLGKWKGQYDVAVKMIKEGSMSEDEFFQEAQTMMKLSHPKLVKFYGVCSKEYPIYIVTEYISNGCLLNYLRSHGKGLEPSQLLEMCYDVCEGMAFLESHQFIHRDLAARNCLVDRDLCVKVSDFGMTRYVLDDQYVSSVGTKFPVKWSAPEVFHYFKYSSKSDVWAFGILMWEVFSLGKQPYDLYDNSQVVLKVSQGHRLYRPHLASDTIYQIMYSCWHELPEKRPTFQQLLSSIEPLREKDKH

[12] = system: primary IMCD cells; experiment: AQP2 redistribution, immunofluorescence microscopy; details: for inhibition of the AVP-induced redistribution of AQP2 to the plasma membrane: 1 h (Aurora-A inhibitor I 1-30 µM)
[13] = biological target: T12, CAMK1G (Homo sapiens, UniProt Q96NX5); experiment: Thermal shift assay; assay type: binding; details: read-out: ΔTm CAMK1G
T12 construct: purchased in-house thermal shift (DSF) kinase panel (SGC Frankfurt); Promega NanoBRET for AURKA/B/C
T12 sequence (Q96NX5 23-277): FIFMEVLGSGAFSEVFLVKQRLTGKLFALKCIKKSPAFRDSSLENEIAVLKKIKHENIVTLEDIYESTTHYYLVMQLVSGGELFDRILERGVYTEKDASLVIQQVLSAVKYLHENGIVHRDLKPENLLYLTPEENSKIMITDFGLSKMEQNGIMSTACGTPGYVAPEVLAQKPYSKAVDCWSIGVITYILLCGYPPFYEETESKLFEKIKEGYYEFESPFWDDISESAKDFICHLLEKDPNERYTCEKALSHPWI

[14] = biological target: T13, EPHA2 (Homo sapiens, UniProt P29317); experiment: Thermal shift assay; assay type: binding; details: read-out: ΔTm EPHA2
T13 construct: purchased in-house thermal shift (DSF) kinase panel (SGC Frankfurt); Promega NanoBRET for AURKA/B/C
T13 sequence (P29317 596-900): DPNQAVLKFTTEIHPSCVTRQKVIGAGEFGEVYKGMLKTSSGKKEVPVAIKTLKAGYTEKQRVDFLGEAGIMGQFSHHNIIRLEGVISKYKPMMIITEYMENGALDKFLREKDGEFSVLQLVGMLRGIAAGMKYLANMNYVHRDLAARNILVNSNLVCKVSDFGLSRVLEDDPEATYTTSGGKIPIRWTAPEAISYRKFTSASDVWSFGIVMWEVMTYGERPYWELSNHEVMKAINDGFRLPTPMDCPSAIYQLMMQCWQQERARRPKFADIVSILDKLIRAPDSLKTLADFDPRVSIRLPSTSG

[15] = biological target: T14, MAPK9 (Homo sapiens, UniProt P45984); experiment: Thermal shift assay; assay type: binding; details: read-out: ΔTm MAPK9
T14 construct: purchased in-house thermal shift (DSF) kinase panel (SGC Frankfurt); Promega NanoBRET for AURKA/B/C
T14 sequence (P45984 whole entry): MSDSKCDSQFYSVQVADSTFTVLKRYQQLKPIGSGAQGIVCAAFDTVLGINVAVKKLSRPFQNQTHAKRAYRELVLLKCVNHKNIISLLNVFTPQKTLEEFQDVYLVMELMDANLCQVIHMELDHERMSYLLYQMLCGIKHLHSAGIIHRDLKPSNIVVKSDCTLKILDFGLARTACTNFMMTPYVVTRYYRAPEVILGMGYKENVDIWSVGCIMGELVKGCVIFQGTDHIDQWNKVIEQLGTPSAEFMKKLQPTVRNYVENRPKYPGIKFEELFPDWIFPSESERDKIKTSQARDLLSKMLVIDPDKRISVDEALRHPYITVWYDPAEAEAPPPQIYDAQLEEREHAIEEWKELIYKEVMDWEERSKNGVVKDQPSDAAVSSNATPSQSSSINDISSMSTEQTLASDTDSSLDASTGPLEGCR

[16] = compound 20 µM, AVP 100 nM, 30 min

SMILES | inhibition of the AVP-induced redistribution of AQP2 to the plasma membrane [12, 16] | ΔTm at 10 µM ([1]; compound 10 µM, n = 3) | ΔTm at 10 µM ([2]; compound 10 µM, n = 3) | ΔTm at 10 µM ([3]; compound 10 µM, n = 3) | ΔTm at 10 µM ([4]; compound 10 µM, n = 3) | ΔTm at 10 µM ([5]; compound 10 µM, n = 3) | ΔTm at 10 µM ([6]; compound 10 µM, n = 3) | ΔTm at 10 µM ([7]; compound 10 µM, n = 3) | ΔTm at 10 µM ([8]; compound 10 µM, n = 3) | ΔTm at 10 µM ([9]; compound 10 µM, n = 3) | ΔTm at 10 µM ([10]; compound 10 µM, n = 3) | ΔTm at 10 µM ([11]; compound 10 µM, n = 3) | ΔTm at 10 µM ([13]; compound 10 µM, n = 3) | ΔTm at 10 µM ([14]; compound 10 µM, n = 3) | ΔTm at 10 µM ([15]; compound 10 µM, n = 3) | other results
CCN1CCN(C(=O)Cc2ccc(Nc3ncc(F)c(Nc4ccc(C(=O)Nc5ccccc5Cl)cc4)n3)cc2)CC1 [Aurora-A inhibitor I, reference compound] | inhibits |  |  |  |  |  |  |  |  |  |  |  |  |  |  | ΔTm at 10 µM [1]: 0.2 °C; ΔTm at 10 µM [2]: 1.9 °C; ΔTm at 10 µM [3]: 1.9 °C; ΔTm at 10 µM [4]: 2.3 °C; ΔTm at 10 µM [5]: 2.4 °C; ΔTm at 10 µM [6]: 0.5 °C; ΔTm at 10 µM [7]: 2.6 °C; ΔTm at 10 µM [8]: 3.8 °C; ΔTm at 10 µM [9]: 0.2 °C; ΔTm at 10 µM [10]: 3.1 °C; ΔTm at 10 µM [11]: 2.1 °C; effective concentration for inhibition of AQP2 redistribution ([12]; 1, 10 or 30 µM, 1 h, AVP 100 nM, 30 min): greater than 1 µM; ΔTm at 10 µM [13]: 1.1 °C; ΔTm at 10 µM [14]: 1.4 °C; ΔTm at 10 µM [15]: 2.9 °C
O=C(Cc1ccc(Nc2ncc(F)c(Nc3ccc(C(=O)Nc4ccccc4Cl)cc3)n2)cc1)NCCN1CCOCC1 [ERJ2-04] | no significant difference between resting and AVP-stimulated cells | 0 °C | 1.8 °C | 1.4 °C | 1.3 °C | 2.1 °C | 0.6 °C | 1.3 °C | 0.6 °C | -0.2 °C | 1.1 °C | 1.5 °C | 0.4 °C | 0.3 °C | 1.9 °C | 
NC(=O)Cc1ccc(Nc2ncc(F)c(Nc3ccc(C(=O)Nc4ccccc4Cl)cc3)n2)cc1 [ERJ2-06] | no significant difference between resting and AVP-stimulated cells | 0 °C | 2.4 °C | 2.2 °C | 2.2 °C | 2.4 °C | 0.7 °C | 3.1 °C | 1.4 °C | 0.2 °C | 1.7 °C | 2.1 °C | 1.2 °C | 0.8 °C | 2.9 °C | 
CCN1CCN(C(=O)Cc2ccc(Nc3ncc(F)c(Nc4ccc(C(=O)Nc5ccccc5)cc4)n3)cc2)CC1 [ERJ2-11] | no significant difference between resting and AVP-stimulated cells | 0.2 °C | 2.2 °C | 1.8 °C | 3.1 °C | 2.6 °C | 0.5 °C | 2 °C | 4.8 °C | 0.4 °C | 3.6 °C | 2.7 °C | 1.2 °C | 1.8 °C | 2.8 °C | AQP2 fluorescence intensity ratio compared to DMSO-treated control cells ([12]; compound 20 µM, 1 h): significant decrease
CCN1CCN(C(=O)Cc2ccc(Nc3ncc(F)c(Nc4ccc(C(=O)O)cc4)n3)cc2)CC1 [ERJ2-12] | significantly differed | 0.2 °C | 0.6 °C | 0.4 °C | 1.8 °C | 0.2 °C | 0.2 °C | 0.1 °C | 2.2 °C | 1.1 °C | 2.6 °C | 0.9 °C | 0.2 °C | 1.6 °C | 3 °C | 
